Measurements reported in PubChem BioAssay AID2060486 (Molecular Pharmacology Branch, DTP, NCI, 2025).

Test system: IGROV1 complex spheroids (HUVEC, MSC), viability % test/control
Assay: Anticancer human tumor IGROV1 cell line growth inhibition [GQUAD];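 also: spheroids exposed to compounds for 7 days before readout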;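 as to viability, T/C: 100% = DMSO vehicle control viability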
Conditions: for IC50: curve of first compound; for viability, T/C: stronger effect = lower value
How it was run: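 Multi-cell-type spheroids of tumor cells with HUVEC and mesenchymal stem cells, treated with drug combinations. Concentrations descend in half-log steps from near clinical Cmax, or from 10 microM where Cmax is unknown; viability read-out.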

[1] = second compound 0.0316 µM, first compound 0.0316 µM
[2] = second compound 0.0316 µM, first compound 0.1 µM
[3] = second compound 0.0316 µM, first compound 0.316 µM
[4] = second compound 0.0316 µM, first compound 1 µM
[5] = second compound 0.0316 µM, first compound 3.16 µM
[6] = second compound 0.0316 µM, first compound 10 µM
[7] = second compound 0.1 µM, first compound 0.0316 µM
[8] = second compound 0.1 µM, first compound 0.1 µM
[9] = second compound 0.1 µM, first compound 0.316 µM
[10] = second compound 0.1 µM, first compound 1 µM
[11] = second compound 0.1 µM, first compound 3.16 µM
[12] = second compound 0.1 µM, first compound 10 µM
[13] = second compound 0.316 µM, first compound 0.0316 µM
[14] = second compound 0.316 µM, first compound 0.1 µM
[15] = second compound 0.316 µM, first compound 0.316 µM
[16] = second compound 0.316 µM, first compound 1 µM
[17] = second compound 0.316 µM, first compound 3.16 µM
[18] = second compound 0.316 µM, first compound 10 µM
[19] = second compound 1 µM, first compound 0.0316 µM
[20] = second compound 1 µM, first compound 0.1 µM
[21] = second compound 1 µM, first compound 0.316 µM
[22] = second compound 1 µM, first compound 1 µM
[23] = second compound 1 µM, first compound 3.16 µM
[24] = second compound 1 µM, first compound 10 µM
[25] = second compound 3.16 µM, first compound 0.0316 µM
[26] = second compound 3.16 µM, first compound 0.1 µM
[27] = second compound 3.16 µM, first compound 0.316 µM
[28] = second compound 3.16 µM, first compound 1 µM
[29] = second compound 3.16 µM, first compound 3.16 µM
[30] = second compound 3.16 µM, first compound 10 µM
[31] = second compound 10 µM, first compound 0.0316 µM
[32] = second compound 10 µM, first compound 0.1 µM
[33] = second compound 10 µM, first compound 0.316 µM
[34] = second compound 10 µM, first compound 1 µM
[35] = second compound 10 µM, first compound 3.16 µM
[36] = second compound 10 µM, first compound 10 µM

Compound: CC1COCCN1c1cc(C2(O)CC3CCC(C2)O3)c2cnn(-c3ccn[nH]3)c2n1 (centres undefined) + Cc1[nH]c2ccc(F)cc2c1-c1nc2c3cccnc3c3ncccc3c2[nH]1
- IC50 (second compound 0.0316 µM): 37.6 nM
- IC50 (second compound 0.1 µM): 42.3 nM
- IC50 (second compound 0.316 µM): < 31.6 nM
- IC50 (second compound 1 µM): < 31.6 nM
- IC50 (second compound 3.16 µM): < 31.6 nM
- IC50 (second compound 10 µM): < 31.6 nM
- viability, T/C [1]: 55.6%
- viability, T/C [2]: 18.9%
- viability, T/C [3]: 7.44%
- viability, T/C [4]: 4.8%
- viability, T/C [5]: 3.59%
- viability, T/C [6]: 2.02%
- viability, T/C [7]: 61%
- viability, T/C [8]: 17.7%
- viability, T/C [9]: 8.01%
- viability, T/C [10]: 6.5%
- viability, T/C [11]: 3.58%
- viability, T/C [12]: 1.71%
- viability, T/C [13]: 21.6%
- viability, T/C [14]: 7.64%
- viability, T/C [15]: 4.88%
- viability, T/C [16]: 3.7%
- viability, T/C [17]: 3.28%
- viability, T/C [18]: 1.86%
- viability, T/C [19]: 3%
- viability, T/C [20]: 3.91%
- viability, T/C [21]: 3.25%
- viability, T/C [22]: 3.03%
- viability, T/C [23]: 3.34%
- viability, T/C [24]: 1.4%
- viability, T/C [25]: 3.59%
- viability, T/C [26]: 4.2%
- viability, T/C [27]: 3.24%
- viability, T/C [28]: 3.06%
- viability, T/C [29]: 3.02%
- viability, T/C [30]: 1.16%
- viability, T/C [31]: 3.5%
- viability, T/C [32]: 2.96%
- viability, T/C [33]: 4.38%
- viability, T/C [34]: 2.77%
- viability, T/C [35]: 3%
- viability, T/C [36]: 1.15%

Compound: CC1COCCN1c1cc(C2(S(C)(=N)=O)CC2)nc(-c2ccnc3[nH]ccc23)n1 (centres undefined) + Cc1[nH]c2ccc(F)cc2c1-c1nc2c3cccnc3c3ncccc3c2[nH]1
- IC50 (second compound 0.0316 µM): 986 nM
- IC50 (second compound 0.1 µM): 884 nM
- IC50 (second compound 0.316 µM): 426 nM
- IC50 (second compound 1 µM): < 31.6 nM
- IC50 (second compound 3.16 µM): < 31.6 nM
- IC50 (second compound 10 µM): < 31.6 nM
- viability, T/C [1]: 80%
- viability, T/C [2]: 86.7%
- viability, T/C [3]: 80.4%
- viability, T/C [4]: 49.2%
- viability, T/C [5]: 14.5%
- viability, T/C [6]: 7.71%
- viability, T/C [7]: 87.4%
- viability, T/C [8]: 98.1%
- viability, T/C [9]: 74.4%
- viability, T/C [10]: 48.9%
- viability, T/C [11]: 13.7%
- viability, T/C [12]: 6.84%
- viability, T/C [13]: 81.5%
- viability, T/C [14]: 74.3%
- viability, T/C [15]: 60.9%
- viability, T/C [16]: 21.1%
- viability, T/C [17]: 7.66%
- viability, T/C [18]: 3.74%
- viability, T/C [19]: 4.68%
- viability, T/C [20]: 4.27%
- viability, T/C [21]: 4.11%
- viability, T/C [22]: 3.67%
- viability, T/C [23]: 4.03%
- viability, T/C [24]: 2.64%
- viability, T/C [25]: 4.14%
- viability, T/C [26]: 5.15%
- viability, T/C [27]: 4.92%
- viability, T/C [28]: 4.78%
- viability, T/C [29]: 3.97%
- viability, T/C [30]: 2.94%
- viability, T/C [31]: 3.9%
- viability, T/C [32]: 4.76%
- viability, T/C [33]: 5.04%
- viability, T/C [34]: 3.7%
- viability, T/C [35]: 3.55%
- viability, T/C [36]: 2.63%
